The source of these data is patent US5565489A, “Epoxycyclohexenedione derivatives” (Kyowa Hakko Kogyo Co., Ltd., priority 1993, dated 1996).

For experiment [1], the target named is T1, FTase (Rattus norvegicus, UniProt Q02293+Q04631).
T1 construct: The FTase used for the assay was obtained from rat brain as follows; from tissue; host or cells: male rat brain; ammonium sulfate fraction, Mono Q 10/10, partially purified
Briefly: FTase inhibitory activity (farnesylation of v-Ki-ras p21, partially purified rat brain FTase). Type of experiment: biochemical. As to conditions: for IC50: rat brain FTase, v-Ki-ras p21 substrate. Here is the method:
(§1) FTase Inhibitory Activity
The FTase used for the assay was obtained from rat brain as follows. An extract of minced brain of a male rat was salted out using ammonium sulfate. The fraction obtained at 50% saturation was dissolved in a buffer solution (20 mM Tris-HCl, pH 7.5, 1 mM dithiothreitol (DTT), 20 μM ZnCl2) and further fractionated by column chromatography using a Mono Q 10/10 column. The column was eluted by gradient elution with 0.3 to 0.4 M NaCl. The active fraction eluted at near 0.35 M NaCl, was used as a partially purified preparation. Measurement of the activity was carried out by using the thus prepared enzyme and v-Ki-ras p21 as a substrate. The v-Ki-ras p21, used as a substrate, was obtained by high expression using Escherichia coli, followed by purification according to the method of Tamaoki, et al. [Biochem. Biophys. […] The enzyme inhibitory activity was measured as inhibition of the test compound on farnesylation of the C-terminal of v-ki-ras p21 in the above-mentioned reaction system.

For the next experiment, the target named is FTase of yeast origin. The following applies: ras protein of yeast origin as substrate; read-out: IC50 against FTase of yeast origin; cited from earlier work.
The target of experiment [2] is T2, FTase (Bos taurus, UniProt P29702+P49355).
T2 construct: An extract of minced bovine brain was subjected to column chromatography on DEAE-Sephacel (Pharmacia); from tissue; host or cells: bovine brain; DEAE-Sephacel active fraction, crude enzyme solution
Kind of experiment: FTase inhibitory activity (farnesylation of C-terminal peptide of lamin B, crude bovine brain enzyme, FTase [^3 H]SPA enzyme assay kit). Type of experiment: biochemical. The following applies: for inhibitory activity against FTase (in words): Table 2 summary; for IC50: bovine brain enzyme, lamin B C-terminal peptide. The protocol:
as §1
An extract of minced bovine brain was subjected to column chromatography on DEAE-Sephacel (Pharmacia). The active fraction was concentrated by ultrafiltration and dialyzed against a mixture of 20 mM Tris-HCl (pH 8.0), 50 mM NaCl, […], 1 mM DTT, 0.2 mM phenylmethylsulfonyl fluoride (PMSF). The resulting dialysate was used as a crude enzyme solution. Measurement of activity was carried out by using the enzyme obtained by the above-mentioned method and an FTase [^3 H]SPA enzyme assay kit (Amersham). Enzyme inhibitory activity was measured as inhibition of farnesylation of the C-terminal peptide of lamin B by the test compound in the above-mentioned reaction system. The enzyme inhibitory activity of a group treated with a test compound of a known concentration was compared with that of a non-treated group to calculate the concentration of the test compound for 50% inhibition of farnesylation (IC50).

In experiment [3] the test system is NIH 3T3 fibroblasts transformed by oncogene EJ-ras. Briefly: Inhibitory activity on cell growth of NIH 3T3/EJ-ras. The class given is cell-based. Here is the method: Inhibitory Activity on Cell Growth
The antitumor activity was measured by using NIH 3T3 fibroblasts transformed by oncogene EJ-ras (hereinafter referred to as "NIH 3T3/EJ-ras").
NIH 3T3/EJ-ras cells were suspended in a DME medium (Nissui KK) containing 10% fetal bovine serum, penicillin (100 U/ml) and streptomycin (100 μg/ml) (hereinafter referred to as medium A) in a cell concentration of 1.0×10^4 cells/ml. Each well of a […] microtiter plate was inoculated with 0.1 ml of the cell suspension, and the system was monolayer cultured by incubation in a carbondioxide incubator at 37° C. for 24 hours. To each well was added 0.1 ml of a test compound appropriately diluted with medium A, followed by incubation in the carbondioxide incubator at 37° C. for 72 hours. The cells were recovered by trypsinization, and the number of the cells was counted with a cell counter. A concentration of the test compound for 50% inhibition of cell growth (IC50) was calculated.

The subject of experiment [4] is Staphylococcus aureus ATCC 6538P. Briefly: Antimicrobial activity, agar dilution method (SA). Type of experiment: cell-based. The following applies: ATCC6538P, pH 7. Here is the method:
(§2) Antimicrobial activity was measured by an agar dilution method using a culture medium (pH 7) prepared by dissolving 3 g of Bacto-tryptone (Difco), 3 g of meat extract, 1 g of yeast extract, 1 g of glucose, and 16 g of agar in 1 l of water. The antimicrobial activity was expressed in terms of minimum growth inhibitory concentration (MIC).
(In general: In agar dilution the substance is mixed into plates at graded concentrations.)

The test system of experiment [5] is Enterococcus faecium ATCC 10541. Briefly: Antimicrobial activity, agar dilution method (EF). Type of experiment: cell-based. As to conditions: ATCC10541, pH 7. The protocol:
as §2

The subject of experiment [6] is Bacillus subtilis No. 10707. Briefly: Antimicrobial activity, agar dilution method (BS). The class given is cell-based. As to conditions: pH 7. The protocol:
as §2

In experiment [7] the test system is Staphylococcus aureus, Enterococcus faecium, Bacillus subtilis. Briefly: Antimicrobial activity, agar dilution method (summary of Table 4). Type of experiment: cell-based. The following applies: Table 4 summary. The protocol:
as §2

In experiment [8] the test system is FTase. The following applies: not numerically described; cited from earlier work.

≈ marks a conversion by molar mass, not a printed value.

By IC50 is commonly meant the midpoint of a concentration-inhibition curve. The MIC is the lowest concentration that inhibits growth of the organism. The low end stands for a more susceptible organism, the high end for a less susceptible organism.

With `CCCC[C@@H](C)/C=C(C)/C=C(\C)C(=O)NC1=C[C@](O)(/C=C/C=C/C=C/C(=O)NC2=C(O)CCC2=O)[C@@H]2O[C@@H]2C1=O` [Manumycin, reference compound], the IC50 was 76 µM on FTase [1] (Experiment 1), 35 µM on FTase [1] (Experiment 2) and 5 µM on FTase of yeast origin.

For `CC(C)=CCC/C(C)=C/CC/C(C)=C/C(=O)NC1=CC(=O)[C@@H]2O[C@@H]2C1=O` (relative stereo) [Compound I-1, 4,5-Epoxy-1-farnesoylamino-3,6-dioxocyclohexene], the IC50 against FTase [1] (Experiment 1) worked out at 18 µM; against FTase [2] it was 21 µM; in [3] (Mus musculus, NIH3T3, NIH 3T3/EJ-ras, 72 hours), 4.3 µM. Besides, the “inhibitory activity against FTase (in words)” value against FTase [1] (Table 1 summary) and at FTase [2] was “obvious inhibitory activity against FTase” throughout. Besides, on FTase [1] (Table 1 summary, as compared with manumycin and compound IVa), the “inhibitory activity compared with manumycin and compound IVa (in words)” value was “significantly strong as compared with those of manumycin and compound IVa”. The “inhibitory activity on growth (in words)” value in [3] (Table 3 summary) is “obvious inhibitory activity on growth of the NIH 3T3 fibroblasts transformed by oncogene EJ-ras”. Further, the MIC in experiment [4] stood at 0.91 µg/mL (≈ 2.55 µM); in experiment [5], 0.46 µg/mL (≈ 1.29 µM); in experiment [6], 0.46 µg/mL (≈ 1.29 µM). Also, the “antimicrobial activity (in words)” value in experiment [7] is recorded as “remarkable antimicrobial activity”.

Regarding `CC(C)=CCC/C(C)=C/CC/C(C)=C/CC/C(C)=C/C(=O)NC1=CC(=O)C2OC2C1=O` (stereo not drawn) [Compound I-5, 4,5-Epoxy-1-geranylgeranoylamino-3,6-dioxocyclohexene], on FTase [2], the “inhibitory activity against FTase (in words)” value was “obvious inhibitory activity against FTase”. Further, the IC50 against FTase [2] stood at 23 µM. The MIC was above 100 µg/mL in experiment [4], 0.65 µg/mL (≈ 1.53 µM) in experiment [5] and 0.65 µg/mL (≈ 1.53 µM) in experiment [6]. Moreover, the “antimicrobial activity (in words)” value in experiment [7] is given as “remarkable antimicrobial activity”.

For `CCCCC/C=C\C/C=C\CCCCCCCC(=O)NC1=CC(=O)C2OC2C1=O` (stereo not drawn) [Compound I-4, 4,5-Epoxy-1-linoleoylamino-3,6-dioxocyclohexene], the “inhibitory activity against FTase (in words)” value on FTase [2] is “obvious inhibitory activity against FTase”. The IC50 at FTase [2] came to 19 µM. Moreover, the minimum inhibitory concentration (MIC) in [4] is above 100 µg/mL; in experiment [5] it was 0.33 µg/mL (≈ 0.822 µM); in experiment [6], 0.65 µg/mL (≈ 1.62 µM). Moreover, the “antimicrobial activity (in words)” value in experiment [7] is “remarkable antimicrobial activity”.

The compound `CCCC[C@@H](C)/C=C(C)/C=C(\C)C(=O)NC1=CC(=O)[C@@H]2O[C@@H]2C1=O` [IVa, reference compound] yielded an IC50 against FTase [1] (Experiment 2) of 60 µM. The “FTase inhibitory activity (in words)” value in the experiment with FTase [8] is “the activity of these compounds can be detected”.

For the compound `CCCCC(C)/C=C(C)/C=C/C(=O)NC1=CC(=O)[C@@H]2O[C@@H]2C1=O` (stereo partly drawn) [IVc], the “FTase inhibitory activity (in words)” value with FTase [8] is “the activity of these compounds can be detected”.

As to `CCCCC(C)/C=C(\C)C(=O)NC1=CC(=O)[C@@H]2O[C@@H]2C1=O` (stereo partly drawn) [IVb], the “FTase inhibitory activity (in words)” value with FTase [8] is listed as “the activity of these compounds can be detected”.

Consider `CCCCCCCCCCCC(=O)NC1=CC(=O)C2OC2C1=O` (stereo not drawn) [Compound I-2, 4,5-Epoxy-l-lauroylamino-3,6-dioxocyclohexene], for which the “inhibitory activity against FTase (in words)” value against FTase [2] is recorded as “obvious inhibitory activity against FTase”. Besides, on FTase [2], half-maximal inhibition (IC50) was put at 21 µM. In addition, the MIC in [4] is above 100 µg/mL; in [5], 0.04 µg/mL (≈ 0.124 µM); in experiment [6] it was 0.08 µg/mL (≈ 0.249 µM). Also, the “antimicrobial activity (in words)” value in experiment [7] was “remarkable antimicrobial activity”.
